The test system of one test is A549 cells. As to the kind of experiment: Cell proliferation PAD assay, A549. The test is classed as cell-based. The settings on record: Homo sapiens, 48 hours. In short, it runs like this: (§1)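 Plate 2,000 cells per well, then add compound after 24 h as duplicate 6.3-fold dilutions, with 10 mM master stock diluted 500-fold on transfer. Grow 48 h at 37 °C in 5% CO2, fix with formamide, stain nuclei with DAPI, and count cells by imaging.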

For a further test, the target named is T1, TRAF6/Uev1A/Ubc13 (Homo sapiens, UniProt Q9Y4K3).
T1 sequence (Q9Y4K3 1-522): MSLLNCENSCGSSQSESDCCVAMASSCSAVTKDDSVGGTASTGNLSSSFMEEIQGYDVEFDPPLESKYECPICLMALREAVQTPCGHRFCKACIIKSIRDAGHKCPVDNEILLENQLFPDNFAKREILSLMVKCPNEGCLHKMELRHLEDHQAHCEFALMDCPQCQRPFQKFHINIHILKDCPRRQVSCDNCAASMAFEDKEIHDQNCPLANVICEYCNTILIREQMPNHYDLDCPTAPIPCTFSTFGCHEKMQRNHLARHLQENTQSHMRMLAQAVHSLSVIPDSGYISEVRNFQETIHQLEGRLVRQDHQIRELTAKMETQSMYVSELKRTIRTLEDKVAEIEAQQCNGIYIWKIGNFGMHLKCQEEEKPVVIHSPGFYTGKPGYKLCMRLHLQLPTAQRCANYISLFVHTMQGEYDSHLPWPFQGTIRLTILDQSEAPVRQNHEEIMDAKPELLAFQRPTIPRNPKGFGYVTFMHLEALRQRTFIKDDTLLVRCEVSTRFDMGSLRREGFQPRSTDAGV
As to the kind of experiment: TRAF6/Uev1A/Ubc13 plate-based ubiquitin ligase assay. Format: biochemical. In short, it runs like this: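 Ligase activity was read as luminescence from anti-Flag/HRP detection of Flag-ubiquitin bound to casein-blocked Ni-plates alongside His-ubiquitin after a 1 h room-temperature reaction. Buffer: 62.5 mM Tris pH 7.5, 6.25 mM MgCl2, 1.0 mM DTT, 2 μM ATP; E1, Uev1a/Ubc13 and TRAF6 added last to start. IC50s derived across compound concentrations.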

In the next test the test system is H1299 cells. The test is described as follows: Cell proliferation PAD assay, H1299. The test is classed as cell-based. The settings on record: Homo sapiens, 48 hours. In short, it runs like this:
as §1

Setting [1] is: NCI-H1299, 3pt, read-out: H1299 3pt.
The mark [2] stands for this setting: NCI-H1299, 6pt, read-out: H1299 6pt.

Read-outs that look alike come from different tables or passages of the source.

In the case of `O=S(=O)(Oc1ccc(N2CCN(S(=O)(=O)c3ccc(Cl)c4nonc34)CC2)cc1)c1ccc(Cl)c2nonc12` [compound 171, 4-{4-[(7-chloro-2,1,3-benzoxadiazol-4-yl)sulfonyl]piperazin-1-yl}phenyl 7-chloro-2,1,3-benzoxadiazole-4-sulfonate], the IC50 in the test with A549 cells (3pt, read-out: A549 3pt) is no less than 20 µM; in the test on A549 cells (6pt, read-out: A549 6pt) it was no less than 20 µM; against TRAF6/Uev1A/Ubc13, 1 to 20 µM; with H1299 cells (setting [1]), 1 to 20 µM; in the test with H1299 cells (setting [2]) it was no less than 20 µM.

`O=S(=O)(c1ccc(Sc2cccc3cccnc23)c2nonc12)N1CCN(c2ncc(C(F)(F)F)cc2Cl)CC1` [compound 177, 8-{[7-({4-[3-chloro-5-(trifluoromethyl)pyridin-2-yl]piperazin-1-yl}sulfonyl)-2,1,3-benzoxadiazol-4-yl]thio}quinoline]: the IC50 in the test on A549 cells (3pt, read-out: A549 3pt) is no less than 20 µM; with A549 cells (6pt, read-out: A549 6pt), no less than 20 µM; against TRAF6/Uev1A/Ubc13, 1 to 20 µM; in the test on H1299 cells (setting [1]), no less than 20 µM; with H1299 cells (setting [2]) it was no less than 20 µM.

Consider `COC(=O)c1ccc(NS(=O)(=O)c2c(Cl)ccc3nonc23)cc1` [compound 178, methyl 4-{[(5-chloro-2,1,3-benzoxadiazol-4-yl)sulfonyl]amino}benzoate], for which the IC50 was 1 to 20 µM in the test on A549 cells (3pt, read-out: A549 3pt); no less than 20 µM in the test on A549 cells (6pt, read-out: A549 6pt); no less than 20 µM at TRAF6/Uev1A/Ubc13; 1 to 20 µM with H1299 cells (setting [1]); less than 1 µM in the test with H1299 cells (setting [2]).

In the case of `O=S(=O)(c1c(Cl)ccc2nonc12)N1CCN(c2ncc(C(F)(F)F)cc2Cl)CC1` [compound 179, 5-chloro-4-({4-[3-chloro-5-(trifluoromethyl)pyridin-2-yl]piperazin-1-yl}sulfonyl)-2,1,3-benzoxadiazole], the IC50 in the test on A549 cells (3pt, read-out: A549 3pt) was 1 to 20 µM; in the test with A549 cells (6pt, read-out: A549 6pt) it was 1 to 20 µM; at TRAF6/Uev1A/Ubc13, 1 to 20 µM; in the test with H1299 cells (setting [1]), 1 to 20 µM; in the test on H1299 cells (setting [2]), less than 1 µM.

For `N#Cc1ccccc1N1CCN(S(=O)(=O)c2c(Cl)ccc3nonc23)CC1` [compound 180, 2-{4-[(5-chloro-2,1,3-benzoxadiazol-4-yl)sulfonyl]piperazin-1-yl}benzonitrile], the IC50 is 1 to 20 µM in the test on A549 cells (3pt, read-out: A549 3pt); no less than 20 µM in the test on A549 cells (6pt, read-out: A549 6pt); no less than 20 µM on TRAF6/Uev1A/Ubc13; 1 to 20 µM in the test on H1299 cells (setting [1]); no less than 20 µM in the test on H1299 cells (setting [2]).

Regarding `O=S(=O)(c1c(N2CCN(c3ccc(Cl)c(C(F)(F)F)c3)CC2)ccc2nonc12)N1CCN(c2ccc(Cl)c(C(F)(F)F)c2)CC1` [compound 181, 5-{4-[4-chloro-3-(trifluoromethyl)phenyl]piperazin-1-yl}-4-({4-[4-chloro-3-(trifluoromethyl)phenyl]piperazin-1-yl}sulfonyl)-2,1,3-benzoxadiazole], the IC50 with A549 cells (3pt, read-out: A549 3pt) is no less than 20 µM; in the test on A549 cells (6pt, read-out: A549 6pt), 1 to 20 µM; at TRAF6/Uev1A/Ubc13, 1 to 20 µM; in the test with H1299 cells (setting [1]), no less than 20 µM; in the test on H1299 cells (setting [2]), no less than 20 µM.

Regarding `O=S(=O)(c1ccc(Cl)c2nonc12)N1CCN(c2ncccn2)CC1` [compound 184, 4-chloro-7-[(4-pyrimidin-2-ylpiperazin-1-yl)sulfonyl]-2,1,3-benzoxadiazole], the IC50 in the test on A549 cells (3pt, read-out: A549 3pt) is 1 to 20 µM; in the test with A549 cells (6pt, read-out: A549 6pt) it was no less than 20 µM; against TRAF6/Uev1A/Ubc13, no less than 20 µM; with H1299 cells (setting [1]), 1 to 20 µM; in the test with H1299 cells (setting [2]), no less than 20 µM.

Take `O=S(=O)(c1ccc(Cl)c2nonc12)N1CCN(c2ccccc2)CC1` [compound 186, 4-chloro-7-[(4-phenylpiperazin-1-yl)sulfonyl]-2,1,3-benzoxadiazole]: the IC50 in the test on A549 cells (3pt, read-out: A549 3pt) was 1 to 20 µM; in the test with A549 cells (6pt, read-out: A549 6pt), 1 to 20 µM; against TRAF6/Uev1A/Ubc13, no less than 20 µM; in the test with H1299 cells (setting [1]), 1 to 20 µM; in the test with H1299 cells (setting [2]), less than 1 µM.

Take `O=c1[nH]c2ccccc2n1C1CCN(S(=O)(=O)c2ccc(Cl)c3nonc23)CC1` [compound 188, 1-{1-[(7-chloro-2,1,3-benzoxadiazol-4-yl)sulfonyl]piperidin-4-yl}-1,3-dihydro-2H-benzimidazol-2-one]: the IC50 with A549 cells (3pt, read-out: A549 3pt) was 1 to 20 µM; in the test with A549 cells (6pt, read-out: A549 6pt), no less than 20 µM; against TRAF6/Uev1A/Ubc13, no less than 20 µM; in the test on H1299 cells (setting [1]), 1 to 20 µM; with H1299 cells (setting [2]), less than 1 µM.

With `CC1CC(C)CN(S(=O)(=O)c2ccc(Cl)c3nonc23)C1` (centres unmarked) [compound 192, 4-chloro-7-[(3,5-dimethylpiperidin-1-yl)sulfonyl]-2,1,3-benzoxadiazole], the IC50 in the test on A549 cells (3pt, read-out: A549 3pt) is 1 to 20 µM; in the test with A549 cells (6pt, read-out: A549 6pt), no less than 20 µM; against TRAF6/Uev1A/Ubc13, no less than 20 µM; in the test with H1299 cells (setting [1]), 1 to 20 µM; in the test on H1299 cells (setting [2]), no less than 20 µM.

Take `N#CC1(c2ccccc2)CCN(S(=O)(=O)c2ccc(O)c3nonc23)CC1` [compound 199, 1-[(7-hydroxy-2,1,3-benzoxadiazol-4-yl)sulfonyl]-4-phenylpiperidine-4-carbonitrile]: the IC50 in the test with A549 cells (3pt, read-out: A549 3pt) is 1 to 20 µM; with A549 cells (6pt, read-out: A549 6pt) it was no less than 20 µM; against TRAF6/Uev1A/Ubc13, no less than 20 µM; with H1299 cells (setting [1]), 1 to 20 µM; in the test with H1299 cells (setting [2]), no less than 20 µM.

Take `O=S(=O)(c1c(Cl)ccc2nonc12)N1CCN(c2cnccn2)CC1` [compound 200, 5-chloro-4-[(4-pyrazin-2-ylpiperazin-1-yl)sulfonyl]-2,1,3-benzoxadiazole]: the IC50 with A549 cells (3pt, read-out: A549 3pt) was 1 to 20 µM; in the test on A549 cells (6pt, read-out: A549 6pt), no less than 20 µM; against TRAF6/Uev1A/Ubc13 it was no less than 20 µM; in the test on H1299 cells (setting [1]), 1 to 20 µM; in the test with H1299 cells (setting [2]), less than 1 µM.

Take `CC(=O)N1CCN(S(=O)(=O)c2c(Cl)ccc3nonc23)CC1` [compound 201, 4-[(4-acetylpiperazin-1-yl)sulfonyl]-5-chloro-2,1,3-benzoxadiazole]: the IC50 in the test on A549 cells (3pt, read-out: A549 3pt) was 1 to 20 µM; in the test with A549 cells (6pt, read-out: A549 6pt) it was no less than 20 µM; at TRAF6/Uev1A/Ubc13, no less than 20 µM; in the test with H1299 cells (setting [1]), 1 to 20 µM; with H1299 cells (setting [2]), less than 1 µM.

For `Cc1cccc(N2CCN(S(=O)(=O)c3c(Cl)ccc4nonc34)CC2)n1` [compound 202, 5-chloro-4-{[4-(6-methylpyridin-2-yl)piperazin-1-yl]sulfonyl}-2,1,3-benzoxadiazole], the IC50 with A549 cells (3pt, read-out: A549 3pt) is 1 to 20 µM; with A549 cells (6pt, read-out: A549 6pt), less than 1 µM; on TRAF6/Uev1A/Ubc13, no less than 20 µM; in the test with H1299 cells (setting [1]), 1 to 20 µM; with H1299 cells (setting [2]), less than 1 µM.

Consider `N#Cc1ccc(N2CCN(S(=O)(=O)c3c(Cl)ccc4nonc34)CC2)nc1` [compound 209, 6-{4-[(5-chloro-2,1,3-benzoxadiazol-4-yl)sulfonyl]piperazin-1-yl}nicotinonitrile], for which the IC50 with A549 cells (3pt, read-out: A549 3pt) was 1 to 20 µM; in the test on A549 cells (6pt, read-out: A549 6pt), less than 1 µM; against TRAF6/Uev1A/Ubc13 it was 1 to 20 µM; with H1299 cells (setting [1]), 1 to 20 µM; with H1299 cells (setting [2]), less than 1 µM.

In the case of `CC(=O)N1CCN(S(=O)(=O)c2c(Sc3cccc4cccnc34)ccc3nonc23)CC1` [compound 214, 8-({4-[(4-acetylpiperazin-1-yl)sulfonyl]-2,1,3-benzoxadiazol-5-yl}thio)quinoline], the IC50 in the test on A549 cells (3pt, read-out: A549 3pt) was 1 to 20 µM; on TRAF6/Uev1A/Ubc13 it was 1 to 20 µM; in the test with H1299 cells (setting [1]) it was 1 to 20 µM.

For the compound `O=S(=O)(Nc1ccc2cn[nH]c2c1)c1ccc(Cl)c2nonc12` [compound 220, 7-chloro-N-1 H-indazol-6-yl-2,1,3-benzoxadiazole-4-sulfonamide], the IC50 in the test with A549 cells (3pt, read-out: A549 3pt) is 1 to 20 µM; in the test with A549 cells (6pt, read-out: A549 6pt) it was 1 to 20 µM; on TRAF6/Uev1A/Ubc13 it was no less than 20 µM; in the test on H1299 cells (setting [1]), 1 to 20 µM; in the test on H1299 cells (setting [2]) it was 1 to 20 µM.

The values above are taken from patent US20050282818A1, “Ubiquitin ligase inhibitors” (Rigel Pharmaceuticals, Inc., priority 2004, published 2005).
